Measurements published in patent US11478426B2, “Abuse deterrent immediate release capsule dosage forms” (SpecGX LLC, priority 2018, dated 2022).

Test system: Slug species
Assay: Slug irritation test (mucus production as model of nasal irritation)
Format: in vivo
Settings: 15 min exposure, mean ± SEM (n)
Method: The organic acid of the capsule contents was tested for potential nasal irritation using a slug irritation model.

CCCCCCCCCCCCOS(=O)(=O)[O-].[Na+] [Sodium Lauryl Sulfate]
Mucus Production (% of Body Weight) (dose 0.3 mg): 5.9 ± 2.0 (6) % of Body Weight | Mucus Production (% of Body Weight) (dose 1.0 mg): 9.5 ± 2.1 (9) % of Body Weight | Mucus Production (% of Body Weight) (dose 3.0 mg): 13.4 ± 2.6 (3) % of Body Weight | Mucus Production (% of Body Weight) (dose 5.0 mg): 9.8 ± 2.1 (6) % of Body Weight | Mucus Production (% of Body Weight) (dose 10 mg): 16.6 ± 0.9 (3) % of Body Weight | Mucus Production (% of Body Weight) (dose 15 mg): 22.7 ± 4.5 (3) % of Body Weight | Mucus Production (% of Body Weight) (dose 20 mg): 26.2 ± 3.8 (3) % of Body Weight

O=C(O)C(O)C(O)C(=O)O (stereo not shown) [Tartaric Acid]
Mucus Production (% of Body Weight) (dose 3.0 mg): 2.8 ± 2.4 (3) % of Body Weight | Mucus Production (% of Body Weight) (dose 5.0 mg): 7.2 ± 0.7 (6) % of Body Weight | Mucus Production (% of Body Weight) (dose 10 mg): 10.0 ± 1.3 (3) % of Body Weight | Mucus Production (% of Body Weight) (dose 15 mg): 33.6 ± 1.1 (6) % of Body Weight | Mucus Production (% of Body Weight) (dose 20 mg): 24.6 ± 2.8 (3) % of Body Weight

Benzalkonium Chloride [Benzalkonium Chloride (BAC)]
Mucus Production (% of Body Weight) (dose 1%): 24.7 ± 2.1 (3) % of Body Weight
